Data published in patent US10104889B2 (priority 2011, dated 2018).
Read-outs that look alike come from different tables or passages of the source.

Experiments:
Format in all cases: in vivo
[1] = test system: Candidatus ‘Liberibacter asiaticus’; settings: for effect on bacteria levels during the evaluation period: 1 μM spray every 15 days for 6 months, 10 HLB infected citrus plants, FIG. 5
Alternaria solani = assay: Control of disease in tomato plants inoculated with Alternaria solani; settings: 1 μM spray every 15 days for 3 months; for percentage of mortality due to disease: mortality at 3 months
Procedure: (§1) In order to evaluate the effect of the brassinosteroid analogue (25R)-3-hydroxy-C-homo-11-oxa-5-espirostan-12-one and a natural brassinosteroid (brassinolide), on the control of other plant diseases, experiments were conducted with tobacco and tomato plants inoculated with Phytophthora parasitica and Alternaria solani, respectively. Both the natural brassinosteroid as the analogue were applied by spraying at a concentration of 1 μM every 15 days for 3 months. The mortality rate was determined at 3 months. […] Hundred plants were used for each treatment. Untreated plants were used as controls.

Phytophthora parasitica = assay: Control of disease in tobacco plants inoculated with Phytophthora parasitica; settings: 1 μM spray every 15 days for 3 months; for percentage of mortality due to disease: mortality at 3 months
Procedure: as §1

[2] = test system: genes related to defense against diseases of citrus plants; assay: Relative expression of defense-related genes in citrus plants by real-time quantitative PCR; settings: Citrus sinensis, 20 μM spray
Procedure: Citrus plants (Citrus sinensis) were treated with the brassinosteroid analogue (25R)-3-hydroxy-C-homo-11-oxa-5-espirostan-12-one at 20 μM (Iglesias et al. (1998) Synthetic Communications 28: 75-81). Leaves from five plants were collected at 0, 1, 5, 10, 24 and 48 hours after spray application. Total RNA was extracted from leaves using the RNeasy kit (Qiagen, Valencia, Calif.) according to manufacturer's instructions, which includes a DNase treatment. The cDNAs were synthesized by using oligo-dT primer and reverse transcription kit SuperScript III (Invitrogen, Carlsbad, Calif.) according to manufacturer's instructions. The real-time quantitative PCR was performed using a RotorGene 3000 PCR machine (Corbett, Australia) and QuantiTect SYBR Green PCR kit (Qiagen). The reaction conditions in real-time PCR were: an initial denaturation step at 95° C. for 15 min. followed by denaturation at 95° C. for 15 s, an alignment step for 30 s at 60° C. and an extension step for 30 s at 72° C. for 40 cycles. The analysis was carried out using the RotorGene 3000 software (Corbett, Australia) and five replicates were used for each sample. Experiments were repeated twice.

[3] = test system: genes related to the natural defense mechanism of plants against diseases; assay: Identification of new defense genes activated in treated citrus plants by SuperSAGE; settings: Citrus sinensis, 20 μM spray, leaves 1-48 hours, FIG. 2
Procedure: Citrus plants (Citrus sinensis) were treated with the brassinosteroid analogue (25R)-3-hydroxy-C-homo-11-oxa-5-espirostan-12-one at 20 μM. Leaves from five plants were collected at 1, 5, 10, 24 and 48 hours after spray application. Total RNA was extracted from leaves using the RNeasy kit (Qiagen, Valencia, Calif.) according to manufacturer's instructions. The cDNAs were synthesized by using biotinylated oligo-dT primer and reverse transcription kit SuperScript III (Invitrogen, Carlsbad, Calif.) according to manufacturer's instructions. Samples of five citrus plants treated with water and collected during the times listed above were used as control. The identification and characterization of new genes was performed by the construction of two cDNA libraries by the technique of SuperSAGE (Matsumura et al. (2003) PNAS 100: 15718-15723). The control library was the mixture of leaves of plants treated with water at different times and target sample was the mixture of citrus plant leaves treated with the analogue at different times. The new genes related to plant response to the HLB, activated by application of brassinosteroid analogue, were isolated, sequenced and analyzed.

[4] = test system: Candidatus ‘Liberibacter asiaticus’; settings: adult plants, natural conditions, 20 mM spray every 15 days, one year, FIG. 3B
[5] = test system: Candidatus ‘Liberibacter asiaticus’; settings: HLB infected Citrus sinensis treated for one year, FIG. 4A
[6] = test system: Candidatus ‘Liberibacter asiaticus’; settings: 1 μM spray twice a month, area with HLB plants and Diaphorina citri, FIG. 7
[7] = greenhouse, Citrus sinensis with HLB, 20 μM spray every 15 days, 6 months, FIG. 3A

CC(C)[C@H](C)[C@@H](O)[C@H](O)[C@@H](C)[C@H]1CC[C@H]2[C@@H]3COC(=O)[C@H]4C[C@H](O)[C@H](O)C[C@]4(C)[C@H]3CC[C@]12C [brassinolide, reference compound]
effect on bacteria levels during the evaluation period [1]: significant reduction in bacteria levels
effect on incidence of disease (Alternaria solani): marked effect in reducing the incidence of diseases
percentage of mortality due to disease (Alternaria solani): 12 percentage
effect on incidence of disease (Phytophthora parasitica): marked effect in reducing the incidence of diseases
percentage of mortality due to disease (Phytophthora parasitica): 13 percentage

C[C@@H]1CC[C@@]2(OC1)O[C@H]1C[C@H]3[C@@H]4CC[C@H]5CC(O)CC[C@]5(C)[C@H]4OC(=O)C[C@]3(C)[C@H]1[C@@H]2C (stereo partly drawn) [brassinosteroid analogue, (25R)-3-hydroxy-C-homo-11-oxa-5-espirostan-12-one]
time of highest expression of the rest of the genes ([2]; after application): 5 h
time of highest level of expression of allene oxide synthase gene ([2]; after application): 24 h
activation of all analyzed genes (chitinase, β-1,3-glucanase, glutathione peroxidase, phenylalanine-ammonia lyase, superoxide dismutase, allene oxide synthase) ([2]; leaves 0-48 hours, FIG. 1): activated
activation of new genes identified by SuperSAGE [3]: simultaneously activates genes related to hypersensitive response, salicylic acid and jasmonic acid/ethylene
Absolute concentration of the bacterium after 6 months of treatment ([1]; 0.001 μM, spray every 15 days for 6 months): 522 Copies of the bacteria by reaction
Absolute concentration of the bacterium after 6 months of treatment ([1]; 0.01 μM, spray every 15 days for 6 months): 29 Copies of the bacteria by reaction
effect on bacteria levels during the evaluation period [1]: significant reduction in bacteria levels
levels of bacteria, application two times a month and weekly compared with a single application per month ([1]; 1 μM, FIG. 6): significantly reduced levels of bacteria, more early
Absolute concentration of the bacterium after 6 months of treatment ([1]; 1 μM, spray every 15 days for 6 months): 1 Copies of the bacteria by reaction
Absolute concentration of the bacterium after 6 months of treatment ([1]; 5 μM, spray every 15 days for 6 months): 0 Copies of the bacteria by reaction
Absolute concentration of the bacterium after 6 months of treatment ([1]; 10 μM, spray every 15 days for 6 months): 0 Copies of the bacteria by reaction
Absolute concentration of the bacterium after 6 months of treatment ([1]; 20 μM, spray every 15 days for 6 months): 0 Copies of the bacteria by reaction
Absolute concentration of the bacterium after 6 months of treatment ([1]; 40 μM, spray every 15 days for 6 months): 0 Copies of the bacteria by reaction
Absolute concentration of the bacterium after 6 months of treatment ([1]; 60 μM, spray every 15 days for 6 months): 0 Copies of the bacteria by reaction
bacteria levels ([1]; concentrations of 0.01 and up to 60 μM, spray every 15 days for 6 months): drastically reduced
significant reduction in levels of bacteria, from [1, 7]: second month
undetectable levels of bacteria reached from month [1, 7]: 4 month
significant reduction in bacteria levels, from [4]: third months
undetectable levels of bacteria reached from months [4]: 8 months
presence of bacteria in leaves by electron microscopy [5]: presence of bacteria was not observed
protection of citrus plants without HLB against infection [6]: protect them against infection from bacteria
effect on incidence of disease (Alternaria solani): marked effect in reducing the incidence of diseases
percentage of mortality due to disease (Alternaria solani): 9 percentage
effect on incidence of disease (Phytophthora parasitica): marked effect in reducing the incidence of diseases
percentage of mortality due to disease (Phytophthora parasitica): 11 percentage
